{
  "source": "patent US10376520B2",
  "about": "“Methods for the treatment of cardiovascular disorders” (Galapagos NV, priority 2015, dated 2019)",
  "test_system": "RA patients",
  "assay": "Total cholesterol determination, Study 1 (RA patients with inadequate response to methotrexate, add-on to MTX)",
  "format": "in vivo, human",
  "conditions": "for [Total cholesterol] Median CFB / [total cholesterol] Mean CFB: Study 1 12 weeks results",
  "experimental": "Double-blind, placebo-controlled add on study in subjects with moderately to severely active RA who have an inadequate response to methotrexate (MTX) (oral or parenteral).\n595 subjects randomized to one of 6 dose regimens of Compound 1 (dosed as a [Compound 1:HCl:3H2O]) (3 dose levels administered either once or twice daily) or placebo on top of each subject's stable dose of MTX.\nCompound 1 (dosed as a [Compound 1:HCl:3H2O]) is dosed for twelve weeks once daily (q.d.) (50 mg, 100 mg or 200 mg) or twice daily (b.i.d.) (25 mg, 50 mg or 100 mg); or placebo.\nAt Week 12, the subjects on placebo who have not achieved 20% improvement in swollen joint count (SJC66) and tender joint count (TJC68) are re-randomized automatically to receive Compound 1 (dosed as a [Compound 1:HCl:3H2O]) either at 100 mg q.d. or 50 mg b.i.d. doses in a blinded fashion; subjects on 50 mg q.d. who have not achieved 20% improvement in SJC66 and TJC68 will be assigned to 100 mg q.d. and subjects on 25 mg b.i.d. that have not achieved a 20% improvement in SJC66 and TJC68 will be assigned to 50 mg b.i.d. Subjects who switch treatment at week 12 are handled as if they discontinued at week 12 for the purpose of statistical analysis, whereas subjects in the other groups will maintain their randomized treatment until Week 24.\nThis method is based on the determination of Δ^4 cholestenone after enzymatic cleavage of the cholesterol ester by cholesterol esterase, conversion of cholesterol by cholesterol oxidase, and subsequent measurement by the Trinder reaction of the hydrogen peroxide formed (Allain et al., 1974).\nCholesterol esters are cleaved by the action of cholesterol esterase to yield free cholesterol and fatty acids. Cholesterol oxidase then catalyzes the oxidation of cholesterol to cholest-4-en-3-one and hydrogen peroxide. In the presence of peroxidase, the hydrogen peroxide formed effects the oxidative coupling of phenol and 4-aminophenazone to form a red quinone-imine dye. The color intensity of the dye formed is directly proportional to the cholesterol concentration. It is determined by measuring the increase in absorbance.\nHuman serum and plasma samples cholesterol determination was done on a Roche/Hitachi Cobas c 701/702 system which automatically calculate the analyte concentration of each sample.",
  "data": [
    {"molecule": "O=C(Nc1nc2cccc(-c3ccc(CN4CCS(=O)(=O)CC4)cc3)n2n1)C1CC1", "note": "[Compound 1, cyclopropanecarboxylic acid {5-[4-(1,1-dioxo-thiomorpholin-4-ylmethyl)-phenyl]-[1,2,4]triazolo[1,5-a]pyridin-2yl}-amide]", "values": [
      {"measurement": "[total cholesterol] Mean percentage CFB - 12 weeks results", "setting": "50 mg q.d. (N = 82), week 1", "value": 1, "unit": "%"},
      {"measurement": "[total cholesterol] Mean percentage CFB - 12 weeks results", "setting": "50 mg q.d. (N = 82), week 2", "value": 1, "unit": "%"},
      {"measurement": "[total cholesterol] Mean percentage CFB - 12 weeks results", "setting": "50 mg q.d. (N = 82), week 4", "value": 1, "unit": "%"},
      {"measurement": "[total cholesterol] Mean percentage CFB - 12 weeks results", "setting": "50 mg q.d. (N = 82), week 8", "value": 3, "unit": "%"},
      {"measurement": "[total cholesterol] Mean percentage CFB - 12 weeks results", "setting": "50 mg q.d. (N = 82), week 12", "value": 5, "unit": "%"},
      {"measurement": "[total cholesterol] Mean percentage CFB - 12 weeks results", "setting": "100 mg q.d. (N = 85), week 1", "value": 4, "unit": "%"},
      {"measurement": "[total cholesterol] Mean percentage CFB - 12 weeks results", "setting": "100 mg q.d. (N = 85), week 2", "value": 2, "unit": "%"},
      {"measurement": "[total cholesterol] Mean percentage CFB - 12 weeks results", "setting": "100 mg q.d. (N = 85), week 4", "value": 5, "unit": "%"},
      {"measurement": "[total cholesterol] Mean percentage CFB - 12 weeks results", "setting": "100 mg q.d. (N = 85), week 8", "value": 4, "unit": "%"},
      {"measurement": "[total cholesterol] Mean percentage CFB - 12 weeks results", "setting": "100 mg q.d. (N = 85), week 12", "value": 5, "unit": "%"},
      {"measurement": "[total cholesterol] Mean percentage CFB - 12 weeks results", "setting": "200 mg q.d. (N = 86), week 1", "value": 6, "unit": "%"},
      {"measurement": "[total cholesterol] Mean percentage CFB - 12 weeks results", "setting": "200 mg q.d. (N = 86), week 2", "value": 7, "unit": "%"},
      {"measurement": "[total cholesterol] Mean percentage CFB - 12 weeks results", "setting": "200 mg q.d. (N = 86), week 4", "value": 8, "unit": "%"},
      {"measurement": "[total cholesterol] Mean percentage CFB - 12 weeks results", "setting": "200 mg q.d. (N = 86), week 8", "value": 10, "unit": "%"},
      {"measurement": "[total cholesterol] Mean percentage CFB - 12 weeks results", "setting": "200 mg q.d. (N = 86), week 12", "value": 10, "unit": "%"},
      {"measurement": "[total cholesterol] Mean percentage CFB - 12 weeks results", "setting": "2 x 25 mg b.i.d. (N = 86), week 1", "value": 2, "unit": "%"},
      {"measurement": "[total cholesterol] Mean percentage CFB - 12 weeks results", "setting": "2 x 25 mg b.i.d. (N = 86), week 2", "value": 3, "unit": "%"},
      {"measurement": "[total cholesterol] Mean percentage CFB - 12 weeks results", "setting": "2 x 25 mg b.i.d. (N = 86), week 4", "value": 3, "unit": "%"},
      {"measurement": "[total cholesterol] Mean percentage CFB - 12 weeks results", "setting": "2 x 25 mg b.i.d. (N = 86), week 8", "value": 3, "unit": "%"},
      {"measurement": "[total cholesterol] Mean percentage CFB - 12 weeks results", "setting": "2 x 25 mg b.i.d. (N = 86), week 12", "value": 5, "unit": "%"},
      {"measurement": "[total cholesterol] Mean percentage CFB - 12 weeks results", "setting": "2 x 50 mg b.i.d. (N = 85), week 1", "value": 3, "unit": "%"},
      {"measurement": "[total cholesterol] Mean percentage CFB - 12 weeks results", "setting": "2 x 50 mg b.i.d. (N = 85), week 2", "value": 4, "unit": "%"},
      {"measurement": "[total cholesterol] Mean percentage CFB - 12 weeks results", "setting": "2 x 50 mg b.i.d. (N = 85), week 4", "value": 7, "unit": "%"},
      {"measurement": "[total cholesterol] Mean percentage CFB - 12 weeks results", "setting": "2 x 50 mg b.i.d. (N = 85), week 8", "value": 6, "unit": "%"},
      {"measurement": "[total cholesterol] Mean percentage CFB - 12 weeks results", "setting": "2 x 50 mg b.i.d. (N = 85), week 12", "value": 6, "unit": "%"},
      {"measurement": "[total cholesterol] Mean percentage CFB - 12 weeks results", "setting": "2 x 100 mg b.i.d. (N = 84), week 1", "value": 7, "unit": "%"},
      {"measurement": "[total cholesterol] Mean percentage CFB - 12 weeks results", "setting": "2 x 100 mg b.i.d. (N = 84), week 2", "value": 8, "unit": "%"},
      {"measurement": "[total cholesterol] Mean percentage CFB - 12 weeks results", "setting": "2 x 100 mg b.i.d. (N = 84), week 4", "value": 10, "unit": "%"},
      {"measurement": "[total cholesterol] Mean percentage CFB - 12 weeks results", "setting": "2 x 100 mg b.i.d. (N = 84), week 8", "value": 15, "unit": "%"},
      {"measurement": "[total cholesterol] Mean percentage CFB - 12 weeks results", "setting": "2 x 100 mg b.i.d. (N = 84), week 12", "value": 15, "unit": "%"},
      {"measurement": "[Total cholesterol] Median CFB", "setting": "50 mg q.d., week 1", "value": 0.05, "unit": "mmol/L"},
      {"measurement": "[total cholesterol] Mean CFB", "setting": "50 mg q.d., week 1", "value": 0.0, "unit": "mmol/L"},
      {"measurement": "[Total cholesterol] Median CFB", "setting": "50 mg q.d., week 2", "value": 0.04, "unit": "mmol/L"},
      {"measurement": "[total cholesterol] Mean CFB", "setting": "50 mg q.d., week 2", "value": 0.1, "unit": "mmol/L"},
      {"measurement": "[Total cholesterol] Median CFB", "setting": "50 mg q.d., week 4", "value": 0.06, "unit": "mmol/L"},
      {"measurement": "[total cholesterol] Mean CFB", "setting": "50 mg q.d., week 4", "value": 0.1, "unit": "mmol/L"},
      {"measurement": "[Total cholesterol] Median CFB", "setting": "50 mg q.d., week 8", "value": 0.16, "unit": "mmol/L"},
      {"measurement": "[total cholesterol] Mean CFB", "setting": "50 mg q.d., week 8", "value": 0.1, "unit": "mmol/L"},
      {"measurement": "[Total cholesterol] Median CFB", "setting": "50 mg q.d., week 12", "value": 0.20, "unit": "mmol/L"},
      {"measurement": "[total cholesterol] Mean CFB", "setting": "50 mg q.d., week 12", "value": 0.2, "unit": "mmol/L"},
      {"measurement": "[Total cholesterol] Median CFB", "setting": "100 mg q.d., week 1", "value": 0.14, "unit": "mmol/L"},
      {"measurement": "[total cholesterol] Mean CFB", "setting": "100 mg q.d., week 1", "value": 0.2, "unit": "mmol/L"},
      {"measurement": "[Total cholesterol] Median CFB", "setting": "100 mg q.d., week 2", "value": 0.07, "unit": "mmol/L"},
      {"measurement": "[total cholesterol] Mean CFB", "setting": "100 mg q.d., week 2", "value": 0.1, "unit": "mmol/L"},
      {"measurement": "[Total cholesterol] Median CFB", "setting": "100 mg q.d., week 4", "value": 0.25, "unit": "mmol/L"},
      {"measurement": "[total cholesterol] Mean CFB", "setting": "100 mg q.d., week 4", "value": 0.2, "unit": "mmol/L"},
      {"measurement": "[Total cholesterol] Median CFB", "setting": "100 mg q.d., week 8", "value": 0.09, "unit": "mmol/L"},
      {"measurement": "[total cholesterol] Mean CFB", "setting": "100 mg q.d., week 8", "value": 0.1, "unit": "mmol/L"},
      {"measurement": "[Total cholesterol] Median CFB", "setting": "100 mg q.d., week 12", "value": 0.30, "unit": "mmol/L"},
      {"measurement": "[total cholesterol] Mean CFB", "setting": "100 mg q.d., week 12", "value": 0.2, "unit": "mmol/L"},
      {"measurement": "[Total cholesterol] Median CFB", "setting": "200 mg q.d., week 1", "value": 0.25, "unit": "mmol/L"},
      {"measurement": "[total cholesterol] Mean CFB", "setting": "200 mg q.d., week 1", "value": 0.3, "unit": "mmol/L"},
      {"measurement": "[Total cholesterol] Median CFB", "setting": "200 mg q.d., week 2", "value": 0.34, "unit": "mmol/L"},
      {"measurement": "[total cholesterol] Mean CFB", "setting": "200 mg q.d., week 2", "value": 0.3, "unit": "mmol/L"},
      {"measurement": "[Total cholesterol] Median CFB", "setting": "200 mg q.d., week 4", "value": 0.33, "unit": "mmol/L"},
      {"measurement": "[total cholesterol] Mean CFB", "setting": "200 mg q.d., week 4", "value": 0.4, "unit": "mmol/L"},
      {"measurement": "[Total cholesterol] Median CFB", "setting": "200 mg q.d., week 8", "value": 0.54, "unit": "mmol/L"},
      {"measurement": "[total cholesterol] Mean CFB", "setting": "200 mg q.d., week 8", "value": 0.4, "unit": "mmol/L"},
      {"measurement": "[Total cholesterol] Median CFB", "setting": "200 mg q.d., week 12", "value": 0.26, "unit": "mmol/L"},
      {"measurement": "[total cholesterol] Mean CFB", "setting": "200 mg q.d., week 12", "value": 0.5, "unit": "mmol/L"},
      {"measurement": "[Total cholesterol] Median CFB", "setting": "2 x 25 mg b.i.d., week 1", "value": 0.12, "unit": "mmol/L"}
    ]}
  ]
}
